Data on nine molecules can be found in patent US20020028804A1, “Cosmetic compositions containing substituted iminodibenzyl or fluorene derivatives” (Unilever Home & Personal Care USA, Division of Conopco, Inc., priority 2000, published 2002).

Structures are written as SMILES. Where “and” joins values, the source holds several entries; their conditions need not be identical. Equal entries are not always repeated. Where two headings read alike, the source gives them in different places.

The test system of this assay is human sebocytes. The assay is described as follows: Sebum suppression: 14C-acetate incorporation in cultured human sebocytes. To be noted: for activity at 1 µM / activity at 10 µM / activity at 100 µM / activity at 0.1 µM: Homo sapiens. It counts as cell-based. Here is the method: Compounds A through H were tested for their potential to suppress sebum expression, alone or in the presence of a retinoid.
Secondary cultures of human sebocytes obtained from an adult […] were grown in 48-well tissue culture plates (Costar Corp.; Cambridge, Mass.) or 96-well tissue culture plates (Packard Co.; Meriden, Conn.) until confluent. Sebocyte growth medium consisted of Clonetics Keratinocyte Basal Medium (KBM) supplemented with 14 μg/ml bovine pituitary extract, 0.4 μg/ml hydrocortisone, 5 μg/ml insulin, 10 ng/ml epidermal growth factor, 1.2×10−10 M cholera toxin, 100 units/ml penicillin, and 100 μg/ml streptomycin. All cultures were incubated at 37° C. in the presence of 7.5% CO2. Medium was changed three times per week.
On the day of experimentation, the growth medium was removed and the sebocytes washed three times with sterile Dulbecco's Modified Eagle Medium (DMEM; phenol red free). Fresh DMEM was added to each sample (duplicates, triplicates, or quadruplicates depending on the experiment) with 5 microliter of test agent solubilized in ethanol either alone or in the presence of one or 10 micromolar of retinol. Controls consisted of addition of ethanol alone, retinol alone, or phenol red, which has estrogen-like activity and is included as a positive control.
Each plate was returned to the incubator for 20 hours followed by the addition of 14C-acetate buffer (5 mM final concentration, 56 mCi/mmol specific activity). Sebocytes were returned to the incubator for four hours after which each culture was rinsed three times with phosphate buffered saline to remove unbound label. Radioactive label remaining in the sebocytes was harvested and counted using a Beckman scintillation counter.

The mark [1] stands for this setting: 1 μM test compound + 1 μM Retinol, read-out: % of Control.
[2] abbreviates: 1 μM test compound + 10 μM Retinol, read-out: % of Control.
Setting [3] is: 1 μM test compound alone, read-out: % of Control.
The mark [4] stands for this setting: 10 μM test compound alone, read-out: % of Control.
Setting [5] is: 100 μM test compound + 1 μM Retinol, read-out: % of Control.
Where [6] appears, read: 100 μM test compound + 10 μM Retinol, read-out: % of Control.
[7] abbreviates: 100 μM test compound alone, read-out: % of Control.
Where [8] appears, read: 1 μM test compound + 10 μM Retinol.
The mark [9] stands for this setting: 0.1 μM test compound + 1 μM Retinol, read-out: % of Control.
The mark [10] stands for this setting: 0.1 μM test compound + 10 μM Retinol, read-out: % of Control.
Where [11] appears, read: 0.1 μM test compound alone, 14C-acetate label remaining in sebocytes, 20 h + 4 h, read-out: % of Control.
The mark [12] stands for this setting: 10 μM test compound + 1 μM Retinol, read-out: % of Control.
[13] abbreviates: 10 μM test compound + 10 μM Retinol, read-out: % of Control.
The mark [14] stands for this setting: 10 μM test compound + 10 μM Retinol.

In the case of `CC(O)c1cccc(NC(=O)N2c3ccccc3CCc3ccccc32)c1` (stereo not shown) [Compound A], the activity at 1 µM was determined as 82.8% under setting [1], 93.2% under setting [2] and 85.7% under setting [3]. The activity at 10 µM under setting [4] is 91.3%. The activity at 100 µM is, setting by setting: under setting [5], 1%; under setting [6], 0.6%; under setting [7], 2.1%.

On to `O=C(Nc1ccc(OC(F)(F)F)cc1)N1c2ccccc2CCc2ccccc21` [Compound B], for which the activity at 1 µM under setting [1] stood at 104%, the activity at 1 µM under setting [2] stood at 65.7% and the activity at 1 µM under setting [3] was found to be 94.1%. Under setting [4], the activity at 10 µM stood at 89.4%. The activity at 100 µM came out at 0.8% under setting [5], 0.6% under setting [6] and 1.7% under setting [7].

In the case of `O=C(Nc1ccc(O)cc1)N1c2ccccc2CCc2ccccc21` [Compound C], the “% of Control” value under setting [8] was 48.5% and the “% of Control” value (1 μM test compound alone, 1 µM) amounted to 66.4%. Moreover, the activity at 0.1 µM reads like this: under setting [9], 95.1%; under setting [10], 84.6%; under setting [11], 103%. Also, the activity at 10 µM under setting [12] is 37.4% and the activity at 10 µM under setting [4] came out at 56.1%. For the same molecule, the “sebum suppressive activity when combined with retinol” value (in the presence of retinol / a retinoid, versus compound alone) was “improved activity”.

On to `CC1=C(Cl)CCC=C1NC(=O)N1c2ccccc2CCc2ccccc21` [Compound D], for which, under “1 μM test compound + 1 μM Retinol”, the “% of Control” value is reported as 96.9%. Further, the activity at 1 µM under setting [2] worked out at 74.6% and the activity at 1 µM under setting [3] was 77.6%. The activity at 10 µM reads like this: under setting [12], 97.1%; under setting [13], 76.8%; under setting [4], 82.7%. Further, the activity at 100 µM by setting is: under setting [5], 1.1%; under setting [6], 0.5%; under setting [7], 1.8%.

Regarding `O=C(CC1c2ccccc2-c2ccccc21)N1CCC(O)(c2ccc(Cl)cc2)CC1` [Compound F], the “% of Control” value (1 μM test compound alone, 1 µM) worked out at 90.2% and the “% of Control” value under setting [14] came to 27.0%. The activity at 0.1 µM under setting [9] is 92.8%, the activity at 0.1 µM under setting [10] is 83.6% and the activity at 0.1 µM under setting [11] was determined as 95.8%. The activity at 1 µM under setting [3] amounted to 72.3%. Under setting [13], the activity at 10 µM came out at 16.7%.

Consider `O=C(CC1c2ccccc2-c2ccccc21)N1CCC(O)(c2ccccc2)CC1` [Compound G], for which the “% of Control” value (1 μM test compound alone, 1 µM) was determined as 70.7%. Besides, the activity at 10 µM under setting [4] is 67.7%. Besides, the activity at 100 µM reads like this: under setting [6], 0.6%; under setting [7], 2%.

Take `CCCN(CCO)C(=O)CC1c2ccccc2-c2ccccc21` [Compound H]: the “% of Control” value under setting [8] was 72.8% and 99.9%; the “% of Control” value (1 μM test compound alone, 1 µM) was 74.8% and 102.7%; the “% of Control” value under setting [14] is 80.2% and 100.4%; the “% of Control” value (10 μM test compound alone, 10 µM) was 74.6% and 111.7%; the “% of Control” value (100 μM test compound + 10 μM Retinol) is 44.4%; the “% of Control” value (100 μM test compound alone, 100 µM) came to 73.6%. In addition, the activity at 1 µM under setting [1] was determined as 86.4%. For the same molecule, under setting [12], the activity at 10 µM was 76.6%. The activity at 100 µM by setting is: under setting [5], 67.6%; under setting [6], 27.2%; under setting [7], 79.8%.

Consider `O=S1(=O)OC(c2ccc(O)cc2)(c2ccc(O)cc2)c2ccccc21` [Phenol Red, phenol red, reference compound], for which the “% of Control” value was 95.3% and 74.7% (28 μM Phenol Red (positive control)); 15.9% (280 μM Phenol Red (positive control)).

For `CC1=C(/C=C/C(C)=C/C=C/C(C)=C/CO)C(C)(C)CCC1` [Retinol, retinol, reference compound], the “% of Control” value is recorded as 98.1% (1 μM Retinol alone (control)) and 105.8% (10 μM Retinol alone (control)). In addition, the activity at 1 µM (1 μM Retinol alone (control)) stood at 96.5%.
